In PubChem BioAssay AID248 (DTP/NCI, 2004):
Where “and” joins values, the source holds several entries; their conditions need not be identical. Identical values can stand only once. Inconclusive results and toxic doses are left out. Cut-off read from the data, not from the text of the source: active = T/C of 150% or more; inactive = T/C below 125%.

Tested on: L1210 leukemia ip in BDF1 mice, survival T/C
Experiment: NCI In Vivo Anticancer Drug Screen. Data for tumor model L1210 Leukemia (intraperitoneal) in B6D2F1 (BDF1) mice
Settings: endpoint: mean survival time, higher = longer survival
Procedure, shortened: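 Ratio derived from survival: compound-dosed mice over vehicle-dosed mice, all bearing a transplantable tumor.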

[1] = dose: 50.0 mg/kg/injection, schedule: Q01DX001 (ip), vehicle: saline
[2] = dose: 100.0 mg/kg/injection, schedule: Q01DX001 (ip), vehicle: saline
[3] = dose: 200.0 mg/kg/injection, schedule: Q01DX001 (ip), vehicle: saline
[4] = dose: 400.0 mg/kg/injection, schedule: Q01DX001 (ip), vehicle: saline
[5] = dose: 100.0 mg/kg/injection, schedule: Q01DX009 (ip), vehicle: Klucel (hydroxypropylcellulose) (HPC)
[6] = dose: 100.0 mg/kg/injection, schedule: Q04DX003 (ip), vehicle: Klucel (hydroxypropylcellulose) (HPC)
[7] = dose: 200.0 mg/kg/injection, schedule: Q04DX003 (ip), vehicle: Klucel (hydroxypropylcellulose) (HPC)
[8] = dose: 200.0 mg/kg/injection, schedule: Q01DX009 (ip), vehicle: Klucel (hydroxypropylcellulose) (HPC)
[9] = dose: 400.0 mg/kg/injection, schedule: Q01DX009 (ip), vehicle: Klucel (hydroxypropylcellulose) (HPC)
[10] = dose: 100.0 mg/kg/injection, schedule: Q01DX001 (ip), vehicle: carboxymethylcellulose (CMC)
[11] = dose: 200.0 mg/kg/injection, schedule: Q01DX001 (ip), vehicle: carboxymethylcellulose (CMC)
[12] = dose: 400.0 mg/kg/injection, schedule: Q01DX001 (ip), vehicle: carboxymethylcellulose (CMC)
[13] = dose: 400.0 mg/kg/injection, schedule: Q04DX003 (ip), vehicle: Klucel (hydroxypropylcellulose) (HPC)
[14] = dose: 50.0 mg/kg/injection, schedule: Q01DX009 (ip), vehicle: saline with Tween-80
[15] = dose: 100.0 mg/kg/injection, schedule: Q01DX009 (ip), vehicle: saline with Tween-80
[16] = dose: 200.0 mg/kg/injection, schedule: Q01DX009 (ip), vehicle: saline with Tween-80
[17] = dose: 100.0 mg/kg/injection, schedule: Q04DX003 (ip), vehicle: saline with Tween-80
[18] = dose: 400.0 mg/kg/injection, schedule: Q01DX009 (ip), vehicle: saline with Tween-80
[19] = dose: 400.0 mg/kg/injection, schedule: Q04DX003 (ip), vehicle: saline with Tween-80
[20] = dose: 200.0 mg/kg/injection, schedule: Q04DX003 (ip), vehicle: saline with Tween-80

Measured: T/C

CC(=O)ON1C(=O)c2ccccc2C1=O
inactive: [1] 102 % of control | [2] 100 % of control | [3] 102 % of control

Nc1ccn(C2SC(CO)C(O)C2O)c(=O)n1 (stereo not given)
inactive: [1] 100 % of control | [2] 105 % of control | [3] 100 % of control | [4] 92 % of control

NC(=S)N/N=C1\COC(C(F)(F)F)(C(F)(F)F)C1
inactive: dose: 12.5 mg/kg/injection, schedule: Q01DX009 (ip), vehicle: Klucel (hydroxypropylcellulose) (HPC) 100 % of control | dose: 25.0 mg/kg/injection, schedule: Q01DX009 (ip), vehicle: Klucel (hydroxypropylcellulose) (HPC) 97 % of control | dose: 50.0 mg/kg/injection, schedule: Q01DX009 (ip), vehicle: Klucel (hydroxypropylcellulose) (HPC) 96 % of control | [5] 97 % of control and 100 % of control | [6] 103 % of control | [7] 105 % of control

C/C=C/C=N/NC(=O)c1ccccc1O
inactive: [5] 102 % of control | [8] 105 % of control | [9] 94 % of control

CCOc1ccccc1/C=N/NC(=O)C(O)(c1ccccc1)c1ccccc1
inactive: [10] 101 % of control | [11] 101 % of control | [12] 97 % of control

CC(=O)NC1C(Nc2ccc(S(=O)(=O)Nc3nccc(C)n3)cc2)OC(CO)C(O)C1O (stereo not given)
inactive: dose: 250.0 mg/kg/injection, schedule: Q01DX Z (ip), vehicle: methylcellulose (MC) 94 % of control | dose: 375.0 mg/kg/injection, schedule: Q01DX Z (ip), vehicle: methylcellulose (MC) 93 % of control | dose: 500.0 mg/kg/injection, schedule: Q01DX Z (ip), vehicle: methylcellulose (MC) 102 % of control

CCC(OO)(C1=NC(C)(C)CO1)c1ccncc1Br (stereo not given)
inactive: dose: 100.0 mg/kg/injection, schedule: Q01DX001 (ip), vehicle: Klucel (hydroxypropylcellulose) (HPC) 98 % of control | [6] 97 % of control | dose: 200.0 mg/kg/injection, schedule: Q01DX001 (ip), vehicle: Klucel (hydroxypropylcellulose) (HPC) 101 % of control | [7] 101 % of control | [13] 102 % of control

Cn1cccc(C#N)c1=O (tested in a mixture with another compound)
inactive: [2] 103 % of control and 113 % of control | dose: 100.0 mg/kg/injection, schedule: Q04DX002 (ip), vehicle: saline 97 % of control and 110 % of control | dose: 100.0 mg/kg/injection, schedule: Q04DX003 (ip), vehicle: saline 97 % of control | [3] 106 % of control and 108 % of control | dose: 200.0 mg/kg/injection, schedule: Q04DX002 (ip), vehicle: saline 98 % of control and 113 % of control | dose: 200.0 mg/kg/injection, schedule: Q04DX003 (ip), vehicle: saline 103 % of control and 106 % of control | [4] 103 % of control and 105 % of control | dose: 400.0 mg/kg/injection, schedule: Q04DX002 (ip), vehicle: saline 100 % of control and 92 % of control | dose: 400.0 mg/kg/injection, schedule: Q04DX003 (ip), vehicle: saline 106 % of control and 91 % of control

C1=C(c2ccccc2)N(C2CC2)C(c2ccccc2)=CN1Cc1ccccc1
inactive: dose: 100.0 mg/kg/injection, schedule: Q04DX002 (ip), vehicle: Klucel (hydroxypropylcellulose) (HPC) 95 % of control | dose: 200.0 mg/kg/injection, schedule: Q04DX002 (ip), vehicle: Klucel (hydroxypropylcellulose) (HPC) 118 % of control | dose: 400.0 mg/kg/injection, schedule: Q04DX002 (ip), vehicle: Klucel (hydroxypropylcellulose) (HPC) 103 % of control

O=C(O)/C=C\C(=O)Nc1ccccc1NC(=O)/C=C/C(=O)O
inactive: dose: 100.0 mg/kg/injection, schedule: Q01DX009 (ip), vehicle: saline 96 % of control | dose: 200.0 mg/kg/injection, schedule: Q01DX009 (ip), vehicle: saline 94 % of control | dose: 400.0 mg/kg/injection, schedule: Q01DX009 (ip), vehicle: saline 91 % of control

CC(C)(CC(=O)O)Cc1ccccc1
inactive: [14] 101 % of control | [15] 93 % of control | [16] 101 % of control

O=C1CCC=C(c2cccc([N+](=O)[O-])c2)O1
inactive: [6] 100 % of control | [7] 94 % of control | [13] 94 % of control

CCS(=O)(=O)c1ccc(NC(=O)OC(C)(C)C)cc1
inactive: [10] 94 % of control | [11] 94 % of control | [12] 100 % of control

CC(=O)CCCC(C)C1CCC2C3CC=C4CC(O)CCC4(C)C3CCC12C (stereo not given)
inactive: dose: 75.0 mg/kg/injection, schedule: Q01DX009 (sc), vehicle: steriod suspending solution 99 % of control | dose: 100.0 mg/kg/injection, schedule: Q01DX001 (sc), vehicle: steriod suspending solution 105 % of control | dose: 150.0 mg/kg/injection, schedule: Q01DX009 (sc), vehicle: steriod suspending solution 94 % of control | dose: 200.0 mg/kg/injection, schedule: Q01DX001 (sc), vehicle: steriod suspending solution 101 % of control | dose: 300.0 mg/kg/injection, schedule: Q01DX009 (sc), vehicle: steriod suspending solution 92 % of control | dose: 400.0 mg/kg/injection, schedule: Q01DX001 (sc), vehicle: steriod suspending solution 101 % of control

COC(=O)CCC(=O)CCC(C)C
inactive: [15] 110 % of control | [17] 103 % of control | [16] 92 % of control | [18] 101 % of control | [19] 93 % of control

CCOC(=O)C(CCCCC(C(=O)OCC)C(=O)OCC)C(=O)OCC
inactive: [2] 103 % of control | [3] 109 % of control | [4] 105 % of control

C#CC1(OCC2CN(c3ccccc3)C(=O)O2)CCCCC1 (stereo not given)
inactive: [15] 106 % of control | [17] 97 % of control | [16] 108 % of control | [20] 105 % of control | [18] 108 % of control | [19] 92 % of control

CC(C)c1ccc(C2(C)CCCCC2=O)cc1 (stereo not given)
inactive: dose: 100.0 mg/kg/injection, schedule: Q01DX001 (ip), vehicle: other 101 % of control | dose: 200.0 mg/kg/injection, schedule: Q01DX001 (ip), vehicle: other 103 % of control | dose: 400.0 mg/kg/injection, schedule: Q01DX001 (ip), vehicle: other 93 % of control

CC(=O)C(Cc1ccc(CC(C(C)=O)C(C)=O)cc1)C(C)=O
inactive: [17] 100 % of control | [20] 91 % of control | [19] 100 % of control

CC(=O)N(c1ccncc1)c1ccc([N+](=O)[O-])cc1
inactive: [14] 94 % of control | [15] 97 % of control and 107 % of control | dose: 100.0 mg/kg/injection, schedule: Q04DX002 (ip), vehicle: saline with Tween-80 105 % of control and 108 % of control | [17] 98 % of control | [16] 94 % of control and 110 % of control | dose: 200.0 mg/kg/injection, schedule: Q04DX002 (ip), vehicle: saline with Tween-80 105 % of control and 109 % of control | [20] 98 % of control | dose: 400.0 mg/kg/injection, schedule: Q04DX002 (ip), vehicle: saline with Tween-80 92 % of control | [19] 104 % of control

CS(=O)(=O)c1ccc2nnnn2n1
inactive: dose: 6.25 mg/kg/injection, schedule: Q04DX003 (ip), vehicle: saline 100 % of control | dose: 12.5 mg/kg/injection, schedule: Q04DX003 (ip), vehicle: saline 103 % of control | dose: 25.0 mg/kg/injection, schedule: Q04DX003 (ip), vehicle: saline 100 % of control

CC/C=C(\C)C1(CC)C(=O)NC(=O)NC1=O
inactive: dose: 75.0 mg/kg/injection, schedule: Q01DX001 (ip), vehicle: saline 102 % of control | dose: 150.0 mg/kg/injection, schedule: Q01DX001 (ip), vehicle: saline 95 % of control

Cc1ccc(NC(=S)N(C)C)cc1Cl
inactive: [5] 97 % of control | [6] 104 % of control | [8] 101 % of control | [7] 97 % of control | [9] 100 % of control | [13] 104 % of control

O=C(/C=C/c1ccccc1Cl)NCC(O)CO (stereo not given)
inactive: dose: 100.0 mg/kg/injection, schedule: Q04DX003 (ip), vehicle: other 108 % of control | dose: 200.0 mg/kg/injection, schedule: Q04DX003 (ip), vehicle: other 109 % of control | dose: 400.0 mg/kg/injection, schedule: Q04DX003 (ip), vehicle: other 109 % of control
